Data reported in patent US6251894A, “1-(1,2-disubstituted piperidinyl)-4 (fused imidazole)-piperidine derivatives” (Janssen Pharmaceuticals N.V., priority 1995, dated 2001).
Like-named read-outs stand apart in the source and are kept apart here.

Key:
[1] = system: Substance P Induced Relaxation of the Pig Coronary Arteries; test: Antagonism of substance P induced relaxation of the pig coronary arteries; details: 30 min incubation
Protocol: Antagonism of Substance P Induced Relaxation of the Pig Coronary Arteries
Segments of coronary arteries taken from pigs (killed by injection of an overdose of sodium pentobarbital) were inverted and mounted for recording of isometric tension in organ baths (volume 20 ml) with the endothelium at the outside. The preparations were bathed in Krebs-Henseleit solution. The solution was kept at 37° C. and gassed with a mixture of O2 /CO2 (95/5). After stabilisation of the preparations, prostaglandin F2α (10^-5 M) was administered to induce a contraction. This was repeated until contractile responses became stable. Then prostaglandin F2α was again administered and substance P (3×10^-10 M and 10^-9 M cumulatively) was added. Substance P induced endothelium dependent relaxations. After washing away the agonists, a known concentration of a compound of formula (I) was added. After an incubation period of 30 minutes, prostaglandin F2α (10^-5 M) and the same concentrations of substance P as described above were again administered in the presence of the compound to be tested.

[2] = system: Substance P Induced Plasma Extravasation; test: Antagonism of substance P induced plasma extravasation in guinea-pigs; format: in vivo, guinea-pig; details: Cavia porcellus, sc, s.c., 1 hour prior to substance P
Protocol: Antagonism of Substance P Induced Plasma Extravasation in Guinea-pigs
Plasma travasation was induced by injection of substance P (2 mg/kg) in the femoral artery of female guinea-pigs. Evans Blue dye (30 mg/kg) was injected simultaneously. The test compound or solvent was administered subcutaneous (s.c.) or orally (p.o.) 1 hour prior to substance P injection. 10 minutes after challenge, the animals were checked for blue colouring (a direct measure for plasma extravasation) of the nose, the forepaws, and the conjunctiva. 30 minutes after challenge, the animals were sacrificed by CO2 gas inhalation and checked for blue colouring of the trachea and the urinary bladder. […]

[3] = test compound concentration 3 × 10^-9 (unit not given)
[4] = test compound concentration 3 × 10^-8 (unit not given)
[5] = 10 min, conjunctiva, read-out: lowest active dose (LAD), conjunctiva
[6] = 10 min, forepaws, read-out: lowest active dose (LAD), forepaws
[7] = 10 min, nose, read-out: lowest active dose (LAD), nose
[8] = 0.5 h, trachea, read-out: lowest active dose (LAD), trachea
[9] = 0.5 h, urinary bladder, read-out: lowest active dose (LAD), urinary bladder

Row | SMILES | % inhibition of the response to 10^-9 M substance P [1, 3] | further results
1 | O=C(c1cc(C(F)(F)F)cc(C(F)(F)F)c1)N1CC[C@@H](N2CCC(C3c4ccccc4CCn4c3nc3ccccc34)CC2)C[C@@H]1Cc1ccc(Cl)c(Cl)c1 (mixture of isomers) [Compound 63, (±)-trans-1-[3,5-bis(trifluoromethyl)benzoyl]-2-[(3,4-dichlorophenyl)methyl]-4-[4-(11,12-dihydro-6H-benzimidazo[2,1-b][3]benzazepin-6-yl)-1-piperidinyl]piperidine] | 61.4% | 
2 | O=C(c1cc(C(F)(F)F)cc(C(F)(F)F)c1)N1CC[C@@H](N2CCC(=C3c4sccc4CCn4ccnc43)CC2)C[C@H]1Cc1ccccc1 (relative stereo) [Compound 6] |  | % inhibition of the response to 10^-9 M substance P [1, 4]: 93.9%
3 | O=C(c1cc(C(F)(F)F)cc(C(F)(F)F)c1)N1CC[C@@H](N2CCC(=C3c4ccccc4CCn4ccnc43)CC2)C[C@H]1Cc1ccccc1 (relative stereo) [Compound 23] | 13.4% | 
4 | Cc1cc(C)cc(C(=O)N2CC[C@@H](N3CCC(=C4c5ccccc5CCn5c(C=O)cnc54)CC3)C[C@H]2Cc2ccccc2)c1 (relative stereo) [Compound 24] | 38.3% | 
5 | COC(=O)c1cnc2n1CCc1ccsc1C2=C1CCN([C@@H]2CCN(C(=O)c3cc(C)cc(C)c3)[C@@H](Cc3ccccc3)C2)CC1 (relative stereo) [Compound 36] | 23.7% | 
6 | Cc1cc(C)cc(C(=O)N2CC[C@H](N3CCC(=C4c5ccsc5CCn5ccnc54)CC3)C[C@@H]2Cc2ccccc2)c1 (relative stereo) [Compound 38] | 27.1% | 
7 | COC(=O)c1cnc2n1CCc1ccccc1C2=C1CCN([C@H]2CCN(C(=O)c3cc(C)cc(C)c3)[C@@H](Cc3ccccc3)C2)CC1 (relative stereo) [Compound 40] | 8.4% | 
8 | Cc1cc(C)cc(C(=O)N2CC[C@H](N3CCC(=C4c5ccccc5CCn5c(Cl)cnc54)CC3)C[C@@H]2Cc2ccccc2)c1 (relative stereo) [Compound 43] | 16% | 
9 | Cc1cc(C)cc(C(=O)N2CC[C@H](N3CCC(=C4c5ccccc5CCn5c(Cl)cnc54)CC3)C[C@H]2Cc2ccccc2)c1 (relative stereo) [Compound 44] | 63.9% | 
10 | Cc1cc(C)cc(C(=O)N2CC[C@H](N3CCC(=C4c5ccccc5CCn5c4nc4ccccc45)CC3)C[C@@H]2Cc2ccccc2)c1 (relative stereo) [Compound 45] | 7.9% | 
11 | Cc1cc(C)cc(C(=O)N2CC[C@H](N3CCC(=C4c5ccccc5CCn5c4nc4ccccc45)CC3)C[C@H]2Cc2ccccc2)c1 (relative stereo) [Compound 46] | 54.3% | 
12 | O=C(c1cc(Cl)cc(Cl)c1)N1CC[C@H](N2CCC(=C3c4ccccc4CCn4ccnc43)CC2)C[C@H]1Cc1ccccc1 (relative stereo) [Compound 48] | 59.7% | 
13 | O=C(c1cc(C(F)(F)F)cc(C(F)(F)F)c1)N1CC[C@H](N2CCC(=C3c4ccccc4CCn4c3nc(CO)c4CO)CC2)C[C@H]1Cc1ccccc1 (relative stereo) [Compound 49] | 52.5% | 
14 | Cc1ccc2c(c1)CCn1ccnc1C2=C1CCN([C@H]2CCN(C(=O)c3cc(C(F)(F)F)cc(C(F)(F)F)c3)[C@@H](Cc3ccccc3)C2)CC1 (relative stereo) [Compound 50] | 25% | 
15 | Cc1ccc2c(c1)CCn1ccnc1C2=C1CCN([C@H]2CCN(C(=O)c3cc(C(F)(F)F)cc(C(F)(F)F)c3)[C@H](Cc3ccccc3)C2)CC1 (relative stereo) [Compound 51] | 86.3% | 
16 | Cc1cc(C)cc(C(=O)N2CC[C@H](N3CCC(=C4c5ccc(C)cc5CCn5ccnc54)CC3)C[C@@H]2Cc2ccccc2)c1 (relative stereo) [Compound 56] | 9.5% | 
17 | Cc1cc(C)cc(C(=O)N2CC[C@H](N3CCC(=C4c5ccc(C)cc5CCn5ccnc54)CC3)C[C@H]2Cc2ccccc2)c1 (relative stereo) [Compound 57] | 66.7% | 
18 | O=C(c1cc(C(F)(F)F)cc(C(F)(F)F)c1)N1CC[C@H](N2CCC(=C3c4ccccc4CCn4c(Cl)cnc43)CC2)C[C@H]1Cc1ccccc1 (relative stereo) [Compound 58] | 91.5% | 

Row | SMILES | % inhibition of the response to 10^-9 M substance P [1, 3] | further results
19 | Cc1cn2c(n1)C(=C1CCN([C@H]3CCN(C(=O)c4cc(C(F)(F)F)cc(C(F)(F)F)c4)[C@@H](Cc4ccccc4)C3)CC1)c1ccn(C)c1CC2 (relative stereo) [Compound 59] | 76.5% | 
20 | Cc1cn2c(n1)C(=C1CCN([C@H]3CCN(C(=O)c4cc(C(F)(F)F)cc(C(F)(F)F)c4)[C@H](Cc4ccccc4)C3)CC1)c1ccn(C)c1CC2 (relative stereo) [Compound 60] | 89.9% | 
21 | Cc1cc(C)cc(C(=O)N2CC[C@H](N3CCC(=C4c5ccccc5CCn5c4nc(CO)c5CO)CC3)C[C@@H]2Cc2ccccc2)c1 (relative stereo) [Compound 61] | 7.5% | 
22 | O=C(c1cc(C(F)(F)F)cc(C(F)(F)F)c1)N1CC[C@H](N2CCC(=C3c4ccccc4CCn4c(Cl)cnc43)CC2)C[C@@H]1Cc1ccccc1 (relative stereo) [Compound 62] | 49.0% | 
23 | O=C(c1cc(C(F)(F)F)cc(C(F)(F)F)c1)N1CC[C@H](N2CCC(=C3c4ccccc4CCn4c3nc3ccccc34)CC2)C[C@@H]1Cc1ccccc1 (relative stereo) [Compound 71] | 53.1% | 
24 | O=C(c1ccco1)N1CC[C@@H](N2CCC(=C3c4ccccc4CCn4ccnc43)CC2)C[C@@H]1Cc1ccccc1 (relative stereo) [Compound 77] | 3.2% | 
25 | O=C(c1ccc2ccccc2c1)N1CC[C@@H](N2CCC(=C3c4ccccc4CCn4ccnc43)CC2)C[C@@H]1Cc1ccccc1 (relative stereo) [Compound 78] | 7.5% | 
26 | O=C(Nc1cc(C(F)(F)F)cc(C(F)(F)F)c1)N1CC[C@@H](N2CCC(=C3c4ccccc4CCn4ccnc43)CC2)C[C@@H]1Cc1ccccc1 (relative stereo) [Compound 80] | 10.9% | 
27 | O=C(c1ccc2[nH]ccc2c1)N1CC[C@@H](N2CCC(=C3c4ccccc4CCn4ccnc43)CC2)C[C@@H]1Cc1ccccc1 (relative stereo) [Compound 81] | 2.2% | 
28 | O=C(c1ccc2ccccc2c1)N1CC[C@H](N2CCC(=C3c4ccccc4CCn4ccnc43)CC2)C[C@@H]1Cc1ccccc1 (relative stereo) [Compound 84] | 2.4% | 
29 | O=C(c1cc2cc(F)ccc2[nH]1)N1CC[C@H](N2CCC(=C3c4ccccc4CCn4ccnc43)CC2)C[C@@H]1Cc1ccccc1 (relative stereo) [Compound 89] | 1.1% | 
30 | O=C(c1cc(C(F)(F)F)cc(C(F)(F)F)c1)N1CC[C@H](N2CCC3(CC2)c2ccccc2CCn2ccnc23)C[C@@H]1Cc1ccccc1 (relative stereo) [Compound 117] |  | minimal effective dose [2, 5]: 2.5 mg/kg; minimal effective dose [2, 6]: 2.5 mg/kg; minimal effective dose [2, 7]: 2.5 mg/kg; minimal effective dose [2, 8]: 40 mg/kg; minimal effective dose [2, 9]: 10 mg/kg
31 | O=C(c1cc(C(F)(F)F)cc(C(F)(F)F)c1)N1CC[C@@H](N2CCC3(CC2)c2ccccc2CCn2ccnc23)C[C@@H]1Cc1ccccc1 (relative stereo) [Compound 118] |  | minimal effective dose [2, 5]: 10 mg/kg; minimal effective dose [2, 6]: 10 mg/kg; minimal effective dose [2, 7]: 10 mg/kg; minimal effective dose [2, 8]: 10 mg/kg; minimal effective dose [2, 9]: 10 mg/kg
32 | Cc1cc(C)cc(C(=O)N2CC[C@@H](N3CCC4(CC3)c3ccccc3CCn3ccnc34)C[C@H]2Cc2ccccc2)c1 (relative stereo) [Compound 119, (±)-cis-4-(5,6-dihydrospiro[11H-imidazo[2,1-b][3]benzazepine-11,4'-piperidin]-1-yl)-1-(3,5-dimethylbenzoyl)-2-(phenylmethyl)piperidine] | 9.3% | 
33 | O=C(c1cc(C(F)(F)F)cc(C(F)(F)F)c1)N1CCC(N2CCC(C3c4ccccc4CCn4c3nc3ccccc34)CC2)CC1Cc1ccccc1 (stereo not shown) [Compound 12] |  | % inhibition of the response to 10^-9 M substance P [1, 4]: 93.2%
34 | O=C(c1cc(C(F)(F)F)cc(C(F)(F)F)c1)N1CC[C@H](N2CCC(C3c4ccccc4CCn4c3nc3ccccc34)CC2)C[C@H]1Cc1ccccc1 (stereo partly shown) [Compound 13] | 74.2% | 
35 | Cc1cc(C)cc(C(=O)N2CCC(N3CCC(=C4c5ccccc5CCn5c(C)cnc54)CC3)CC2Cc2ccccc2)c1 (stereo not shown) [Compound 28] | 37.4% | 
